Assay [1] addresses alpha-mannosidase (Canavalia ensiformis). Nature of the assay: Concentration of compound inhibiting alpha-Mannosidase isolated from Jack bean.
Assay [2] shares this target. In words: Binding affinity towards alpha-Mannosidase isolated from Jack bean.
Assay [3] has the same target. In words: Inhibition of alpha-Mannosidase isolated from Jack bean.
Assay [4] shares this target. In words: Binding affinity towards alpha-Mannosidase isolated from jack bean.

Molecule `O=C(NCC(NC[C@H]1NC[C@H](O)[C@@H]1O)c1ccccc1)c1cccc(Br)c1` (stereo partly drawn) [3-Bromo-N-{2-[((2R,3R,4S)-3,4-dihydroxy-pyrrolidin-2-ylmethyl)-amino]-2-phenyl-ethyl}-benzamide] displayed an IC50 in assay [1] of 89 µM. In the case of `O[C@H]1[C@@H](O)CN[C@@H]1CNC1CCc2ccccc21` (stereo partly drawn) [(2R,3R,4S)-2-((R)-Indan-1-ylaminomethyl)-pyrrolidine-3,4-diol], the IC50 in assay [1] turned out to be 17 µM. The same molecule had a Ki in assay [2] of 2300 nM.

For the molecule `O[C@H]1[C@@H](O)CN[C@@H]1CNC(COCc1ccccc1)c1ccccc1` (stereo partly drawn) [(2R,3R,4S)-2-[((R)-2-Benzyloxy-1-phenyl-ethylamino)-methyl]-pyrrolidine-3,4-diol], it took 58 µM to reach half-maximal inhibition in assay [3] (IC50). In assay [4], this molecule came in with a Ki of 16 µM. `O[C@H]1[C@@H](O)CN[C@@H]1CN[C@@H](c1ccccc1)[C@H](O)c1ccccc1` [(2R,3R,4S)-2-[((R)-Phenyl-1-(S)-2-hydroxy-2-phenyl-ethylamino)-methyl]-pyrrolidine-3,4-diol] gave an IC50 in assay [1] of 128 µM. The same measure, in the same setting: to `O[C@H]1[C@@H](O)CN[C@@H]1CN[C@H](c1ccccc1)[C@@H](O)c1ccccc1` [(2R,3R,4S)-2-[((S)-Phenyl-1-(R)-2-hydroxy-2-phenyl-ethylamino)-methyl]-pyrrolidine-3,4-diol] belongs 110 µM. Turning to `OCC(NC[C@H]1N[C@H](CO)[C@H](O)[C@@H]1O)c1ccccc1` (stereo partly drawn) [(2R,3S,4R,5R)-2-Hydroxymethyl-5-[((R)-2-hydroxy-1-phenyl-ethylamino)-methyl]-pyrrolidine-3,4-diol], the IC50 in assay [1] came to 4.2 µM. In assay [2], this molecule returned an inhibitory constant (Ki) of 1350 nM.

Source of the values: BindingDB's records for doi:10.1021/jm0409019 (Institute of Chemical Sciences and Engineering, 2005).
